For one experiment, the system named is circulating lymphocytes. As to the kind of experiment: Assessment of in vivo efficacy: circulating lymphocytes after oral administration to Wistar rats. On the set-up: species or system rat. The settings on record: Rattus norvegicus, Lymphocyte, normotensive male Wistar rats, compared to vehicle group, read-out: Lymphocyte counts; for change in vivo at 10 mg/kg: 6 h after oral administration of 10 mg/kg; for change in vivo at 3 mg/kg: 6 h after an oral dose of 3 mg/kg. Here is the method: Assessment of In Vivo Efficacy
The efficacy of the compounds of Formula (I) is assessed by measuring the circulating lymphocytes after oral administration of 3 to 30 mg/kg of a compound of Formula (I) to normotensive male Wistar rats. The animals are housed in climate-controlled conditions with a 12 h-light/dark cycle, and have free access to normal rat chow and drinking water. […] Full blood is subjected to hematology using Advia Hematology system (Bayer Diagnostics, Zurich, Switzerland).
All data are presented as mean±SEM. Statistical analyses are performed by analysis of variance (ANOVA) using Statistica (StatSoft) and the Student-Newman-Keuls procedure for multiple comparisons. The null hypothesis is rejected when p<0.05.

The subject of the next experiment is rat trachea rings. The experiment is described as follows: Measurement of isometric force development: constriction of rat trachea rings.
The target of experiment [1] is T1, human S1P1 (EDG1) receptor (Homo sapiens, UniProt P21453).
T1 construct: host or cells: U2OS (Tango EDG1-bla U2OS)
T1 sequence (P21453 whole entry): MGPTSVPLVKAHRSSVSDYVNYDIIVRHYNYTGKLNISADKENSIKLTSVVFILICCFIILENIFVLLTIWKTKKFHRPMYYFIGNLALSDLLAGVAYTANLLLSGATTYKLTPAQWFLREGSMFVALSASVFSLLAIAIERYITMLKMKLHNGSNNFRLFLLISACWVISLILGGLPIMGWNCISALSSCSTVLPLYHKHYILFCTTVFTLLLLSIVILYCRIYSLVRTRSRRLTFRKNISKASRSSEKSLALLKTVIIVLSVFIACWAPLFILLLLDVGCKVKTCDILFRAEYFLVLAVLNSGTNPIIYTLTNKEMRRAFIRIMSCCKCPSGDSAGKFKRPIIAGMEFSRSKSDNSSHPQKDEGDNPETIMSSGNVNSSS
As to the kind of experiment: S1P1 β-arrestin recruitment (Tango) assay to determine EC50 values. In kind it is cell-based. The settings on record: Tango-EDG1 bla U2OS cells, 16 h incubation. From the text:
S1P1 β-Arrestin Recruitment (Tango) Assay to Determine EC50 Values
Upon ligand activation, G protein-coupled receptors (GPCR) trigger two pathways that independently transduce signals to the cell: one through heterotrimeric GTP-binding proteins (G proteins) and one through β-arrestins. Agonist-induced GPCRs recruit β-arrestin proteins, which then bind to the carboxy-terminal domain of ligand-activated GPCRs. The amount of β-arrestin recruitment can be used to assess the potency and efficacy of GPCR activating ligands.
To measure the potency and efficacy of compounds as S1P1 (EDG1) receptor agonists, Tango™-EDG1 bla U2OS cells (Invitrogen, USA, Catalog #K1520) are used. The Tango™ GPCR technology is based on GeneBLAzer β-lactamase reporter cell assays, which uses a mammalian-optimized β-lactamase reporter gene (bla) combined with a FRET-enabled substrate. The host cells, U2OS, stably express a human S1P1 (EDG1) receptor/transcription factor (TF) fusion protein. The cells also express a recombinant protease tagged β-arrestin protein, which is recruited to the S1P1 receptor upon ligand stimulation and specifically cleaves the S1P1-TF fusion protein. The released TF activates the β-lactamase (bla) reporter gene. To measure the reporter gene activity, cells are loaded with a fluorescent substrate containing two chemically coupled fluorophores, coumarin and fluorescein. […] In the presence of bla, the chemical bond is cleaved and FRET is inhibited. […] The amount of β-arrestin recruitment is proportional to the increase in blue fluorescence.
Tango™-EDG1 bla U2OS cells are cultivated in McCoy's 5A containing 10% dialyzed FBS, 0.1 mM NEAA, 25 mM HEPES, 1 mM sodium pyruvate, 1% Penicillin/Streptomycin, 200 μg/ml zeocin, 50 μg/ml hygromycin and 100 μg/ml geneticin (Invitrogen, USA). Cells are detached with trypsin, resuspended in medium and then counted.
Compounds (10 mM stock in DMSO) are diluted first in DMSO. The pre-diluted compounds solutions are then transferred into Assay Medium/0.1% fatty acid free BSA to reach a fourfold concentrated compound stock, which is applied to the cells to reach the final compound concentrations that range from 10 μM to 0.0005 nM (0.5% final DMSO). Cells are then incubated for 16 h at 37° C. and 5% CO2.
On the technique in general: Activated receptors often draw arrestin, which recruitment assays turn into a signal.

SMILES strings stand for the structures.

Broadly, the EC50 is the concentration giving half of the maximal effect.

Description for rat trachea rings: Measurement of Isometric Force Development
Female Wistar rats are euthanized by exposure to CO2. The tracheae are excised and rings from the lower segments are prepared. […] A resting force of 2 g (20 mN) is applied to the ring preparation, and changes in force generation are measured using an isometric force recorder (EMKA Technologies Inc., Paris, France). Viability of rings is assessed by exposure to a depolarizing concentration of KCl (50 mM). Contraction of trachea is expressed as a percentage of the response to KCl.
The compounds are prepared as stock solutions of 0.3 mM in pure DMSO.

With `CCc1cc(-c2noc(-c3cc(OC)nc(C4CCCC4)c3)n2)cc(C)c1OCCN1CC(C(=O)O)C1` [Example 2, 1-(2-(4-(5-(2-Cyclopentyl-6-methoxypyridin-4-yl)-1,2,4-oxadiazol-3-yl)-2-ethyl-6-methylphenoxy)ethyl)azetidine-3-carboxylic acid], the change in vivo at 10 mg/kg in the experiment with circulating lymphocytes is -70%. Also, the “% trachea constriction at 10 nM” value in the experiment with rat trachea rings (10 nM, in % of the constriction induced by 50 mM KCl) is recorded as <5%. Also, in the experiment with rat trachea rings (30 nM, in % of the constriction induced by 50 mM KCl), the “% trachea constriction at 30 nM” value was <5%. The “% trachea constriction at 0.3 μM” value in the experiment with rat trachea rings (0.3 μM, in % of the constriction induced by 50 mM KCl) worked out at 55%. The activation at 0.1 µM in the experiment on rat trachea rings (Rattus norvegicus, read-out: % trachea constriction at 0.1 μM) was < 5%. Further, the activation at 1 µM in the experiment on rat trachea rings (Rattus norvegicus, read-out: % trachea constriction at 1 μM) was 93%. For the same molecule, in experiment [1], the EC50 was 400 pM.
For `COc1cc(-c2nc(-c3cc(Cl)c(OCCNCCC(=O)O)c(OC)c3)no2)cc(C2CCCC2)n1` [Example 37, 3-((2-(2-Chloro-4-(5-(2-cyclopentyl-6-methoxypyridin-4-yl)-1,2,4-oxadiazol-3-yl)-6-methoxyphenoxy)ethyl)amino)propanoic acid], in the experiment on circulating lymphocytes, the change in vivo at 10 mg/kg is -71%. In addition, in experiment [1], the concentration for a half-maximal effect (EC50) was determined as 200 pM.
Turning to `CCc1cc(-c2noc(-c3cc(OC)nc(C4CCCC4)c3)n2)cc(C)c1OC[C@@H](O)CNC(=O)CCC(=O)O` [Example 15, (S)-4-((3-(4-(5-(2-Cyclopentyl-6-methoxypyridin-4-yl)-1,2,4-oxadiazol-3-yl)-2-ethyl-6-methylphenoxy)-2-hydroxypropyl)amino)-4-oxobutanoic acid], in the experiment with circulating lymphocytes, the change in vivo at 10 mg/kg is -55%. Further, a half-maximal effect in experiment [1] (EC50) was put at 20 pM.
The like results for `CCc1cc(-c2noc(-c3cc(OC)nc(C4CCCC4)c3)n2)cc(C)c1OCCCNC(=O)CC(=O)O` [Example 31, 3-((3-(4-(5-(2-Cyclopentyl-6-methoxypyridin-4-yl)-1,2,4-oxadiazol-3-yl)-2-ethyl-6-methylphenoxy)propyl)amino)-3-oxopropanoic acid] were, in that order, -68% and 71.6 pM.
Regarding `CCc1cc(-c2nc(-c3cc(OC)nc(C4CCCC4)c3)no2)cc(C)c1OCC(=O)O` [Example 53, 2-(4-(3-(2-Cyclopentyl-6-methoxypyridin-4-yl)-1,2,4-oxadiazol-5-yl)-2-ethyl-6-methylphenoxy)acetic acid], the change in vivo at 10 mg/kg in the experiment on circulating lymphocytes is -72%. In experiment [1], a half-maximal response (EC50) required 1200 pM.
Consider `CCc1cc(-c2noc(-c3cc(OC)nc(C4CCCC4)c3)n2)cc(C)c1OCCCN(C)C(=O)CO` [Example 30, N-(3-(4-(5-(2-Cyclopentyl-6-methoxypyridin-4-yl)-1,2,4-oxadiazol-3-yl)-2-ethyl-6-methylphenoxy)propyl)-2-hydroxy-N-methylacetamide], for which, in the experiment with circulating lymphocytes, the change in vivo at 10 mg/kg was -75%. The molecule also registered a 50% effective concentration (EC50) in experiment [1] of 7980 pM.
Turning to `COc1cc(-c2nc(-c3cc(C)c(OCC(=O)NCCO)c(Cl)c3)no2)cc(C2CCCC2)n1` [Example 42, 2-(2-Chloro-4-(5-(2-cyclopentyl-6-methoxypyridin-4-yl)-1,2,4-oxadiazol-3-yl)-6-methyl-phenoxy)-N-(2-hydroxyethyl)acetamide], the change in vivo at 10 mg/kg in the experiment with circulating lymphocytes is -75%. The EC50 in experiment [1] amounted to 400 pM.
The like results for `CCc1cc(-c2noc(-c3cc(OC)nc(C4CCCC4)c3)n2)cc(C)c1OCCCN(C)CC(=O)O` [Example 20, 2-((3-(4-(5-(2-Cyclopentyl-6-methoxypyridin-4-yl)-1,2,4-oxadiazol-3-yl)-2-ethyl-6-methylphenoxy)propyl)(methyl)amino)acetic acid] were, in that order, -57% and 1500 pM.
Consider `CCc1cc(-c2nnc(-c3cc(OC)nc(C4CCCC4)c3)o2)cc(C)c1OCCNCCC(=O)O` [Example 62, 3-((2-(4-(5-(2-Cyclopentyl-6-methoxypyridin-4-yl)-1,3,4-oxadiazol-2-yl)-2-ethyl-6-methylphenoxy)ethyl)amino)propanoic acid], for which, in the experiment on circulating lymphocytes, the change in vivo at 10 mg/kg is -63%. In addition, a half-maximal response in experiment [1] (EC50) required 200 pM.
Consider `CCc1cc(-c2noc(-c3cc(OC)nc(C4CCCC4)c3)n2)cc(C)c1OCCCN(C)C(=O)CCC(=O)O` [Example 34, 4-((3-(4-(5-(2-Cyclopentyl-6-methoxypyridin-4-yl)-1,2,4-oxadiazol-3-yl)-2-ethyl-6-methylphenoxy)propyl)(methyl)amino)-4-oxobutanoic acid], for which the change in vivo at 10 mg/kg with circulating lymphocytes is -66%. The molecule also had an EC50 in experiment [1] of 515 pM.
As to `CCc1cc(-c2noc(-c3cc(OC)nc(C4CCCC4)c3)n2)cc(C)c1OCCNC(=O)CC(=O)O` [Example 49, 3-((2-(4-(5-(2-Cyclopentyl-6-methoxypyridin-4-yl)-1,2,4-oxadiazol-3-yl)-2-ethyl-6-methylphenoxy)ethyl)amino)-3-oxopropanoic acid], the change in vivo at 3 mg/kg in the experiment on circulating lymphocytes was -49%. Also, the 50% effective concentration (EC50) in experiment [1] was 50 pM.
As for `COc1cc(-c2nc(-c3cc(C)c(OCCNCCC(=O)O)c(Cl)c3)no2)cc(C2CCCC2)n1` [Example 43, 3-((2-(2-Chloro-4-(5-(2-cyclopentyl-6-methoxypyridin-4-yl)-1,2,4-oxadiazol-3-yl)-6-methylphenoxy)ethyl)amino)propanoic acid], the change in vivo at 10 mg/kg with circulating lymphocytes is -62%. Besides, in experiment [1], a half-maximal response (EC50) required 100 pM.
With `COc1cc(-c2nc(-c3cc(Cl)c(OCCCC(=O)NCCO)c(OC)c3)no2)cc(C2CCCC2)n1` [Example 36, 4-(2-Chloro-4-(5-(2-cyclopentyl-6-methoxypyridin-4-yl)-1,2,4-oxadiazol-3-yl)-6-methoxyphenoxy)-N-(2-hydroxyethyl)butanamide], the change in vivo at 10 mg/kg in the experiment with circulating lymphocytes is -73%. In experiment [1], this molecule yielded a concentration giving a half-maximal response (EC50) of 1700 pM.
As for `CCc1cc(-c2nnc(-c3cc(OC)nc(C4CCCC4)c3)o2)cc(C)c1OCCN1CC(C(=O)O)C1` [Example 63, 1-(2-(4-(5-(2-Cyclopentyl-6-methoxypyridin-4-yl)-1,3,4-oxadiazol-2-yl)-2-ethyl-6-methylphenoxy)ethyl)azetidine-3-carboxylic acid], the change in vivo at 10 mg/kg in the experiment on circulating lymphocytes was -71%. Besides, in experiment [1], the half-maximal effective concentration (EC50) was 1100 pM.
As to `COc1cc(-c2nc(-c3cc(Cl)c(OCCNCC(=O)O)c(OC)c3)no2)cc(C2CCCC2)n1` [Example 51, 2-((2-(2-Chloro-4-(5-(2-cyclopentyl-6-methoxypyridin-4-yl)-1,2,4-oxadiazol-3-yl)-6-methoxyphenoxy)ethyl)amino)acetic acid], the change in vivo at 3 mg/kg with circulating lymphocytes is -22%. This molecule also displayed an EC50 in experiment [1] of 700 pM.
Consider `CCc1cc(-c2noc(-c3cc(OC)nc(C4CCCC4)c3)n2)cc(C)c1OC[C@@H](O)CN1CC(C(=O)O)C1` [Example 12, (S)-1-(3-(4-(5-(2-Cyclopentyl-6-methoxypyridin-4-yl)-1,2,4-oxadiazol-3-yl)-2-ethyl-6-methylphenoxy)-2-hydroxypropyl)azetidine-3-carboxylic acid], for which the change in vivo at 10 mg/kg in the experiment with circulating lymphocytes is -61%. The EC50 in experiment [1] worked out at 300 pM.
Turning to `CCc1cc(-c2noc(-c3cc(OC)nc(C4CCCC4)c3)n2)cc(C)c1OCCNCC(O)CO` (racemic) [Example 27, rac-3-((2-(4-(5-(2-Cyclopentyl-6-methoxypyridin-4-yl)-1,2,4-oxadiazol-3-yl)-2-ethyl-6-methylphenoxy)ethyl)amino)propane-1,2-diol], the change in vivo at 10 mg/kg in the experiment with circulating lymphocytes is -42%. The molecule also yielded an EC50 in experiment [1] of 10300 pM.

The values are drawn from patent publication US9133179B2, “2-methoxy-pyridin-4-yl-derivatives” (Actelion Pharmaceuticals Ltd., priority 2011, dated 2015).
